# Reference: patent US20210128596A1, “COMPOSITIONS AND METHODS FOR TREATING SEPTIC CARDIOMYOPATHY” (UNIVERSITY OF PENNSYLVANIA, priority 2017, published 2021)
# “Also recorded” adds a separate entry of the source.
# Assays:
# [1] = system: IL-1α, IL-1β, IL-6, IL-10 and TNFα; assay: Plasma levels of cytokines (Milliplex); type: in vivo, mouse; settings: plasma 12 hours post-surgery
# Excerpt: Inflammatory cytokines measurement—Circulating levels of IL-1α, IL-1β, IL-6, IL-10 and TNFα were quantified simultaneously from frozen plasma samples using the Milliplex MAP Mouse Cytokine kit (MCYTOMAG-70K-05) following the kit specifications. Samples were read using the Luminex MAGPIX multiplexing unit.
# [2] = system: protein kinase A (PKA); assay: Protein kinase A (PKA) activity in AC16 cells; type: cell-based, human
# Excerpt: AC16 cells were either left untreated or treated with SDG, Liposaccharide (LPS), or both.
# Cell culture—A human ventricular cardiomyocyte-derived cell line, designated AC-16, was used for some in vitro experiments. Cells were maintained in Dulbecco's modified Eagle's medium-nutrient mixture F-12 (DMEM-F-12; Invitrogen, Carlsbad, Calif.).
# [3] = system: AC16 cells; assay: Mitochondrial number (Mitotracker Red) in LPS-treated AC16 cells; type: cell-based, human
# Protocol: AC16 cells were either left untreated or treated for 12 hours with Liposaccharide (LPS) in the absence or presence of SDG, and mitochondria were stained.
# To assess changes in the mitochondrial number, LPS stimulated AC16 cells and adult cardiomyocytes isolated 12 hours post-CLP were stained with 200 nM Mitotracker Red (M22425, Molecular Probes), and incubated for 30 minutes in the dark. Excess Mitotracker Red was removed with three washed of PBS solution. Mitotracker Red fluorescence was recorded at 581 (excitation) and 644 nm (emission).
# [4] = system: adult cardiomyocytes isolated from septic mice; assay: Mitotracker Red staining of adult cardiomyocytes isolated from septic mice; type: in vivo, mouse; settings: adult cardiomyocytes isolated 12 hours post-CLP
# Protocol: Adult mouse cardiomyocytes isolation-Adult mouse cardiomyocytes (ACMs) were isolated from ventricles of C57BL/6 mice 12 hours post-sham surgery, CLP surgery or combined performance of CLP and treatment with LGM2605 at 6 hours post-surgery. Hearts from heparinized mice (90 USP; ip) were cannulated through the aorta. Hearts were perfused with perfusion buffer (120.4 mMNaCl, 14.7 mM KCL, 0.6 mM NaH2PO4, 0.6 mM KH2PO4, 1.2 mM MgSO4, 10 mM Hepes, 4.6 mM NaHCO3, 30 mMtaurine, 10 mM BDM, 5.5 mM glucose; pH 7.4) for 3 min followed by digestion with perfusion buffer containing 19250 units Collagenese type II (Worthington), 5-6 mg trypsin and 0.02 mM CaCl2 for 7 min. Ventricles were gently […] into small pieces, perfusion buffer containing 5 mg/ml BSA and 0.125 mM CaCl2 was added and filtered with 100 μm nylon. The filtrate was pelleted by gravity for 5 min, centrifuged for 30 sec at 700 rpm and the pellet resuspended in perfusion buffer containing 5 mg/ml BSA and 0.225 mM CaCl2. The cells were pelleted by gravity for 10 min, centrifuged for 30 sec at 700 rpm and the pellet resuspended in perfusion buffer containing 5 mg/ml BSA and 0.525 mM CaCl2. […] Mitotracker Red fluorescence was recorded at 581 (excitation) and 644 nm (emission).
# [5] = system: MCU and MICU1; assay: MCU and MICU1 mRNA and protein levels after LPS; type: in vivo, mouse; settings: LPS with SDG
# Protocol: Mice were either sham treated or treated with LPS in with or without SDG (n=3 for each group) and the levels of MCU and MICU1 mRNAs were measured in quantitative PCR while the levels of protein were assessed through western blot.
# RNA purification and gene expression analysis—Total RNA was purified from AC16 cells or hearts using the TRIzol reagent according to the instructions of the manufacturer (Invitrogen). DNase-treated RNA was used for cDNA synthesis using the ProtoScript II First Strand cDNA Synthesis Kit (New England Biolabs). Quantitative real-time PCR was performed with the Sybr Select Master Mix (Applied Biosystems). Incorporation of the SYBR green dye into the PCR products was monitored with the Applied Biosystems StepOnePlus Real-Time PCR System. Samples were normalized against mouse 36B4 or human rps13 RNA.
# (§1) Protein purification and analysis—Isolated heart tissue or AC16 cells were homogenized in radioimmune precipitation assay buffer containing protease and phosphatase inhibitors (Pierce Protease and Phosphatase Inhibitor Mini Tablets, Thermo Scientific). 30-50 μg of total protein extract was applied to SDS-PAGE and transferred onto nitrocellulose membranes.
# [6] = system: IκBα; assay: Phosphorylated and total IkBα immunoblot, ventricular tissue; type: in vivo, mouse; settings: ventricular tissue 12 hours post-surgery
# Protocol: as §1
compound,measurement,setting,value
"COc1cc(C[C@@H](CO[C@@H]2O[C@H](CO)[C@@H](O)[C@H](O)[C@H]2O)[C@H](CO[C@@H]2O[C@H](CO)[C@@H](O)[C@H](O)[C@H]2O)Cc2ccc(O)c(OC)c2)ccc1O [LGM2605, secoisolariciresinol diglucoside]","circulating levels of IL-1α, IL-1β, IL-6, TNFα and IL-10",[1],did not reduce circulating levels
same,protein kinase A (PKA) activity,[2]; SDG alone,increased protein kinase A (PKA) activity
same,protein kinase A (PKA) activity,[2]; SDG in the presence of LPS,this stimulation was abolished in the presence of LPS
same,protein kinase A (PKA) activity,[2]; SDG with isoproterenol,the increase was amplified by isoproterenol
same,number of mitochondria (Mitotracker),[3]; LPS 12 h with SDG/LGM2605,prevented by treatment with LGM2605
same,number of mitochondria (Mitotracker),"[3]; LPS 12 h with SDG/LGM2605, listed as SDG",more than compensated for this LPS-dependent drop; also recorded: restored mitochondrial abundance in vitro and in vivo
same,mitochondrial abundance (Mitotracker staining),[4],prevents CLP-associated reduction in mitochondrial abundance
same,mitochondrial abundance (Mitotracker staining),[4]; listed as SDG,restored mitochondrial abundance in vitro and in vivo
same,MCU and MICU1 mRNA levels,[5],restored mRNA expression
same,MCU protein level (western blot),[5],reverses the LPS-mediated decrease of MCU protein level
same,MICU1 protein level (western blot),[5],increases MICU1 protein level
same,phosphorylation of IκBα,[6],prevented by LGM2605
